Assay in all cases: inhibition of tumour cell growth, NCI panel, 48 h
Assay [1] has as its system CAKI-1 renal.
Assay [2] has as its system CCRF-CEM leukemia.
Assay [3] has as its system EKVX NSCLC.
Assay [4] has as its system HS 578T breast.
The test system of assay [5] is K-562 leukemia.
The subject of assay [6] is MCF7 breast.
The test system of assay [7] is NCI-H460 lung.
Assay [8] relates to SF-539 CNS.
Assay [9] deals with SNB-19 CNS.
Assay [10] concerns SNB-75 CNS.
The test system of assay [11] is SW-620 colon.

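Cells were grown in 96-well plates and exposed to each compound for 48 hours at five concentrations; endpoints were interpolated linearly between bracketing concentrations, or set to the highest concentration if not reached. GI50 = concentration required for 50% inhibition of growth. TGI is the concentration that stops growth completely.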

In the case of `C=C1C(=O)O[C@@H]2/C=C(C)/C=C\[C@@H]3O[C@@]3(C)C[C@@H](O)C12` (some centres undefined), the TGI in assay [1] was 21 µM; in [2], 4.93 µM; in assay [3], 20.2 µM; in assay [4], > 100 µM; in assay [5], 20.6 µM; in assay [6], 26.4 µM. The TGI is 73.3 µM in assay [7]; 26 µM in assay [8]; 42.5 µM in [9]; > 100 µM in assay [10]; 17.2 µM in assay [11].

Take `CC(C)C(NC(=O)Oc1ccccc1)C(=O)NC1c2c(Br)sc(Br)c2C(=O)C1O` (centres undefined): the TGI was 14.1 µM in [1]; 15.6 µM in assay [2]; 15.2 µM in assay [3]; > 25 µM in assay [4]; 17.4 µM in assay [5]; > 25 µM in [6]. Besides, the TGI in assay [7] is 8.64 µM; in assay [8], > 25 µM; in assay [9], 10.4 µM; in assay [10], > 25 µM; in assay [11], 11.1 µM.

Turning to `COc1ccc(S(=O)(=O)n2c3c(c4ccccc42)[C@@H]2[C@@H](CCCN2C(=O)CS(=O)c2ccc(C)cc2)[C@H](Cl)C3)cc1` (some centres undefined), the TGI in [1], in assay [2], in assay [3], in [4], in assay [5] and in [6] was > 100 µM in each case. Moreover, the TGI in [7], in assay [8], in [9], in assay [10] and in [11] was > 100 µM each time.

On to `CC(C)(CN1CCCCC1)C(/C=C/c1ccc(Cl)cc1)=N\NC(=O)N/N=C(/C=C/c1ccc(Cl)cc1)C(C)(C)CN1CCCCC1`, for which the TGI in assay [1] was 7.3 µM; in [2] it was > 21.9 µM; in assay [3] it was 18.8 µM; in [4], 19.9 µM; in assay [5], > 100 µM; in [6], > 35.3 µM. For the same compound, the TGI came to 10.2 µM in assay [7]; 18.9 µM in [8]; 16.3 µM in [9]; 12.7 µM in assay [10]; 7.67 µM in assay [11].

For `O=c1c(F)cn(Cc2c(Cl)cccc2Cl)c(=O)n1Cc1c(Cl)cccc1Cl`, the TGI in assay [1], in assay [2], in assay [3], in [4], in assay [5] and in assay [6] was > 31.6 µM each time. Further, the TGI in [7] was > 31.6 µM; in assay [8], > 31.6 µM; in assay [9], > 100 µM; in assay [10] it was > 31.6 µM; in assay [11] it was > 31.6 µM.

With `COCOC1/C=C/CCCCC(=O)C(C)C#CC1` (centres undefined), the TGI in assay [1] is 13.7 µM; in [2] it was 5.81 µM; in [3] it was 23.1 µM; in assay [4] it was > 73.7 µM; in assay [5] it was 7.66 µM; in assay [6], 14.8 µM. In addition, the TGI in assay [7] worked out at 23.9 µM; in assay [8], 11.7 µM; in [9], 32.6 µM; in assay [10] it was 26.1 µM; in assay [11], 3.56 µM.

Consider `O=C1c2cc3c(cc2CC12Cc1ccc4c(c1C2=O)CCC4)CCCC3` (centres undefined), for which the TGI in assay [1], in assay [2], in [3], in [4], in assay [5] and in assay [6] was > 100 µM throughout. Further, the TGI in assay [7], in assay [8], in assay [9], in assay [10] and in assay [11] was > 100 µM in each case.

As to `O=c1[nH]c(=O)n(C2COC(CO)C2O)cc1F` (centres undefined), the TGI in [1], in assay [2], in assay [3], in [4], in [5] and in assay [6] was > 100 µM each time. For the same compound, the TGI in assay [7], in assay [8], in assay [9], in assay [10] and in assay [11] was > 100 µM each time.

In the case of `CC1=NN(c2nc(N)nc(COc3ccc(N)cc3)n2)C(C)(C)C1`, the TGI in [1], in [2], in assay [3], in assay [4], in assay [5] and in assay [6] was > 100 µM in each case. The TGI in [7], in [8], in assay [9], in assay [10] and in assay [11] was > 100 µM throughout.

Take `CC1=C/C(=N\NC(N)=S)C(C(O)(C(F)(F)F)C(F)(F)F)C(C)(C)C1` (centres undefined): the TGI in assay [1], in assay [2], in assay [3], in assay [4], in [5] and in assay [6] was > 10 µM each time. Further, the TGI in [7], in assay [8], in assay [9], in [10] and in assay [11] was > 10 µM each time.

As to `CC(C)=C[C@H]1C[C@H](C)[C@H]2CC[C@H](C)c3c2c1c(C)c1ncoc31`, the TGI in [1] was 35.5 µM; in assay [2] it was 39.6 µM; in assay [3], 30 µM; in assay [4], 45 µM; in [5] it was > 100 µM; in assay [6] it was 30.5 µM. Moreover, the TGI in [7] was 35.6 µM; in assay [8] it was 32.5 µM; in assay [9], 32.3 µM; in [10], 36.2 µM; in assay [11], 36 µM.

For `CCOC(=O)CCC(NC(=O)C(N)Cc1ccc(N(CCCl)CCCl)cc1)C(=O)OCC` (centres undefined), the TGI was 3.08 µM in assay [1]; 4.29 µM in [2]; 6.53 µM in assay [3]; 4.93 µM in [4]; 12.7 µM in assay [5]; 9.5 µM in [6]. For the same compound, the TGI in [7] worked out at 4.09 µM; in assay [8], 3.38 µM; in [9] it was 15.5 µM; in assay [10] it was 2.79 µM; in assay [11], 5.3 µM.

In the case of `O=C1C(Br)=C(Br)C(=O)c2ccc(=O)ccc21`, the TGI in assay [1] is 64.2 µM; in assay [2] it was 17 µM; in assay [3], > 90.9 µM; in assay [4], > 84.5 µM; in assay [5], > 61.9 µM; in assay [6] it was 37.4 µM. The TGI in assay [7] was 67.6 µM; in assay [8], 45 µM; in assay [9], > 100 µM; in assay [10], > 100 µM; in assay [11], 42.7 µM.

In the case of `COc1ccc2oc3c(C)cc4c(OC)nnc(OC)c4c3c2c1`, the TGI in assay [1], in assay [2], in [3], in assay [4], in assay [5] and in [6] was > 100 µM each time. The TGI in assay [7], in assay [8], in assay [9], in assay [10] and in [11] was > 100 µM each time.

In the case of `CCOC(=O)c1csc(NC(=O)CN2CCCC2)n1`, the TGI in assay [1], in assay [2], in assay [3], in [4], in assay [5] and in assay [6] was > 100 µM in each case. Moreover, the TGI in [7], in assay [8], in [9], in assay [10] and in assay [11] was > 100 µM throughout.

Regarding `O=C1c2cccc3cc([N+](=O)[O-])cc(c23)C(=O)N1Nc1ccc([N+](=O)[O-])cc1[N+](=O)[O-]`, the TGI in assay [1] was > 31.6 µM; in assay [2], 14.5 µM; in [3] it was > 46.4 µM; in [4], > 31.6 µM; in [5], > 31.6 µM; in assay [6] it was > 31.6 µM. Besides, the TGI in assay [7] is 36.2 µM; in [8] it was > 31.6 µM; in [9], 38.9 µM; in assay [10], > 31.6 µM; in assay [11], 25.3 µM.

On to `O=S(=O)(O)c1cc(N=Nc2c(O)ccc3ccccc23)cc2c(S(=O)(=O)O)cccc12`, for which the TGI in assay [1], in assay [2], in [3], in assay [4], in assay [5] and in [6] was > 100 µM in each case. Besides, the TGI in assay [7], in assay [8], in assay [9], in assay [10] and in assay [11] was > 100 µM each time.

Regarding `C[N+]12C=CC=C1C(N1CCCC1)c1scc(-c3ccc(Br)cc3)c12` (centres undefined), the TGI in [1] is > 100 µM; in [2] it was 58.9 µM; in assay [3], > 100 µM; in assay [4], 9.6 µM; in assay [5], > 89.9 µM; in assay [6] it was > 90.1 µM. Besides, the TGI in assay [7] is > 84.7 µM; in [8] it was 21.9 µM; in assay [9] it was 39.2 µM; in [10], > 22.3 µM; in [11], > 100 µM.

With `COC(=O)c1cccc(C)c1C1CN=NC12Cc1cc(C)cc(C)c1C2=O` (centres undefined), the TGI in assay [1] was > 100 µM; in assay [2], > 100 µM; in [3], 90.3 µM; in assay [4], > 100 µM; in [5], > 100 µM; in assay [6] it was > 100 µM. Moreover, the TGI in [7] was > 100 µM; in [8], > 100 µM; in assay [9], > 100 µM; in assay [10], 83.1 µM; in assay [11] it was > 100 µM.

Turning to `COc1ccccc1CC(=O)C(O)(C(F)(F)F)C(F)(F)F`, the TGI in assay [1], in [2], in assay [3], in assay [4], in [5] and in assay [6] was > 100 µM throughout. Also, the TGI in assay [7], in [8], in assay [9], in [10] and in [11] was > 100 µM in each case.

For `O=C(O)Cc1ccc([N+](=O)[O-])cc1[N+](=O)[O-]`, the TGI in assay [1], in [2], in assay [3], in assay [4], in [5] and in [6] was > 100 µM in each case. Further, the TGI in assay [7], in assay [8], in assay [9], in [10] and in [11] was > 100 µM each time.

For `O=C(O)C1C2c3ccccc3C(c3ccccc32)C1C(=O)NCC1CC1` (centres undefined), the TGI in assay [1] was > 100 µM; in [2], 96.8 µM; in assay [3], > 100 µM; in [4], > 100 µM; in assay [5], > 100 µM; in assay [6] it was > 100 µM. Besides, the TGI in [7], in assay [8], in [9], in assay [10] and in assay [11] was > 100 µM throughout.

Turning to `Cc1ccc(S(=O)(=O)N2C3C=CC(C3)[C@@H]2C(Cl)(Cl)Cl)cc1` (some centres undefined), the TGI in [1] is > 68.5 µM; in assay [2] it was 71.2 µM; in assay [3], 55 µM; in assay [4] it was 41.3 µM; in [5], > 100 µM; in assay [6] it was > 100 µM. In addition, the TGI is 35.5 µM in assay [7]; 30 µM in assay [8]; > 87.6 µM in assay [9]; 51.2 µM in assay [10]; 44.9 µM in assay [11]. For the same compound, in [5], the GI50 is 28.5 µM.
